For experiment [1], the target named is T1, CK1α (Homo sapiens, UniProt P48729+Q96SW2).
T1 construct: CSNK1A1-HiBit KI HEK293(LgBit) Cells; host or cells: HEK293(LgBit) knock-in cells
In words: HiBiT degradation assay, CK1α, Procedure A. The class given is cell-based. The method, boiled down: (§1)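 DC50 and Ymin (% remaining) were derived by four-parameter fitting of luminescence data. The data come from a six-hour, 37° C compound exposure of cells in DMEM/10% FBS over a ten-point range, 10 μM to 0.005 μM, followed by Nano-Glo HiBiT lytic detection.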

For experiment [2], the target named is GSPT1 (Homo sapiens, UniProt P15170+Q96SW2). In words: HiBiT degradation assay, GSPT1, Procedure A. It counts as cell-based. More on the design: HiBit-GSPT1 KI HEK293(LgBit) Cells; host or cells: HEK293(LgBit) knock-in cells. The method, boiled down:
as §1
A general note: The HiBiT peptide binds its large partner to form an active luciferase.

T1 sequence (P48729 whole entry): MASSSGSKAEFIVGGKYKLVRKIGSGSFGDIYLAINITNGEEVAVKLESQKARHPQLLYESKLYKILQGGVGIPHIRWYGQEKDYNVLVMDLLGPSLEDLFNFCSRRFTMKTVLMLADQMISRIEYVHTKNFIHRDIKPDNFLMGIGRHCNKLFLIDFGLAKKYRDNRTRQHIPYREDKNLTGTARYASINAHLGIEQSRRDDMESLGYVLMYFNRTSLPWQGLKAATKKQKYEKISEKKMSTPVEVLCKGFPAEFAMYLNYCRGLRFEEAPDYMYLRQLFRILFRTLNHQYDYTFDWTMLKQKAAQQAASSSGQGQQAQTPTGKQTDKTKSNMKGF
T1 sequence (Q96SW2 whole entry): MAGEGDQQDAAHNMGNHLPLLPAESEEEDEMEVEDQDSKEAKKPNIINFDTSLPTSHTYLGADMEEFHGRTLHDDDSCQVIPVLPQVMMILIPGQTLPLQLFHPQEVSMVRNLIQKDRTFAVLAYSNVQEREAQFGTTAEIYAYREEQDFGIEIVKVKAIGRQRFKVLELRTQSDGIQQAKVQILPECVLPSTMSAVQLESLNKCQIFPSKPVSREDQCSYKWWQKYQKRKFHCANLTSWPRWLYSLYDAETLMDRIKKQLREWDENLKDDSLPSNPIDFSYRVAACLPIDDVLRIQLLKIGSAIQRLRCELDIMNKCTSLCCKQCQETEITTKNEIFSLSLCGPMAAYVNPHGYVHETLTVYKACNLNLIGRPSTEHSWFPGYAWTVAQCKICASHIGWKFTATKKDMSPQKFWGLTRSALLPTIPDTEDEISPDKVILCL
T1 sequence (Q16531 whole entry partner): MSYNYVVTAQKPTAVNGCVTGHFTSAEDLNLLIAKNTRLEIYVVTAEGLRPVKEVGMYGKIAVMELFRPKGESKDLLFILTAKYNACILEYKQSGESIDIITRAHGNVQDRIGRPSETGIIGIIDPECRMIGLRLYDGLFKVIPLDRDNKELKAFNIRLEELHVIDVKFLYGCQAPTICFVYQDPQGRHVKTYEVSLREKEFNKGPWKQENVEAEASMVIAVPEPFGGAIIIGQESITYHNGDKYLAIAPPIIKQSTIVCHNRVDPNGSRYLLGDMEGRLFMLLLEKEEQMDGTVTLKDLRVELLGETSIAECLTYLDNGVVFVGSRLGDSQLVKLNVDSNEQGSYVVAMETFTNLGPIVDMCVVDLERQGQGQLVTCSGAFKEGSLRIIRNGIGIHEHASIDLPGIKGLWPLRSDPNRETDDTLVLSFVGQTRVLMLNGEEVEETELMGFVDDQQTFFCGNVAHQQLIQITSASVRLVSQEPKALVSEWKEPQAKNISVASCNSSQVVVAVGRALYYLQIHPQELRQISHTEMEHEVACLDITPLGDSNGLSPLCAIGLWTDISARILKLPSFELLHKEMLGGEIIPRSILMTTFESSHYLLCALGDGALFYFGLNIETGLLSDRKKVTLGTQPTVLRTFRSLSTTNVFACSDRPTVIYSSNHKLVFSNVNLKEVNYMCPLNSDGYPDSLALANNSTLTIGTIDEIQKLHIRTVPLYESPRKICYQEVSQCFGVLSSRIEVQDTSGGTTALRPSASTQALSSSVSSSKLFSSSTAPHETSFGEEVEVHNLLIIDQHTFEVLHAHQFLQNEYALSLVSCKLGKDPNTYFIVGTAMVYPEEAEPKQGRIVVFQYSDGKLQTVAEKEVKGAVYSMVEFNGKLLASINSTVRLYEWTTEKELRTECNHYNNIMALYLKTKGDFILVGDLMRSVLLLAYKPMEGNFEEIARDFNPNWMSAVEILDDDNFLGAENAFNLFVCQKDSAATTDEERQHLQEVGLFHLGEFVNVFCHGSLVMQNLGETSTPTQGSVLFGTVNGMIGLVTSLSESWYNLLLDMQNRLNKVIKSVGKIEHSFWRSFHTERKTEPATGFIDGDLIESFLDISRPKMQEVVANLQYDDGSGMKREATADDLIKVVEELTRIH
Chain of GSPT1 (P15170 whole entry): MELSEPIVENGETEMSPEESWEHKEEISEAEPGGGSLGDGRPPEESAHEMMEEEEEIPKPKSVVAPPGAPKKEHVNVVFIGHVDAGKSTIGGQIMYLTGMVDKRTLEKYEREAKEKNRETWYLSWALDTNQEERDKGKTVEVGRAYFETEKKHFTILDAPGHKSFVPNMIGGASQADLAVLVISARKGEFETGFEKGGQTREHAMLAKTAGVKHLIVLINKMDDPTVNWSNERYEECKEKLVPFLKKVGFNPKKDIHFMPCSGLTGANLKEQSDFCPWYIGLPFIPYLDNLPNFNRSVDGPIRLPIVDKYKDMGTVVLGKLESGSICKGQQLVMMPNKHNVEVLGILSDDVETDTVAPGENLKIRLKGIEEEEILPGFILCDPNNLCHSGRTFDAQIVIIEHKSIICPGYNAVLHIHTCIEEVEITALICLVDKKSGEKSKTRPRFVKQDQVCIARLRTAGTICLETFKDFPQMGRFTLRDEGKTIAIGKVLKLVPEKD
Chain of GSPT1 (Q96SW2 whole entry): as the sequence (Q96SW2 whole entry) above
Chain of GSPT1 (Q16531 whole entry partner): as the sequence (Q16531 whole entry partner) above

For `COc1cc(-c2nc(-c3ccc4c(c3)CN(C3CCC(=O)NC3=O)C4=O)cn2C)ccc1F` (stereo not drawn) [Example 583], in experiment [1] (six hours), the “CK1α Ymin” value is “C (C = 0-10% remaining)” and the DC50 is less than 25 nM. Moreover, in experiment [2] (six hours), the DC50 is less than 25 nM and the “GSPT1 Ymin” value is “F (F = >75-100% remaining)”.

`Cn1cnc(-c2ccc3c(c2)CN(C2CCC(=O)NC2=O)C3=O)c1-c1ccc(-c2ccc(C#N)cc2)cc1` (stereo not drawn) [Example 299]: in experiment [1] (six hours incubation), the “CK1α Ymin” value is listed as “C (C = 0-10% remaining)” and the DC50 is less than 25 nM. In addition, in experiment [2] (six hours incubation), the 50% degradation concentration (DC50) was not below 25 nM and the “GSPT1 Ymin” value was “F (F = >75-100% remaining)”.

Take `Cc1cn(-c2ccc3c(c2)CN(C2CCC(=O)NC2=O)C3=O)nc1-c1ccccc1` (stereo not drawn) [Example 618, 3-(5-(4-methyl-3-phenyl-1H-pyrazol-1-yl)-1-oxoisoindolin-2-yl)piperidine-2,6-dione]: in experiment [1] (six hours), the “CK1α Ymin” value is reported as “D (D = >10- 25% remaining)” and the DC50 is less than 25 nM. Further, in experiment [2] (six hours), the DC50 was not below 25 nM and the “GSPT1 Ymin” value is “F (F = >75-100% remaining)”.

Consider `Cn1cnc(-c2ccc3c(c2)CN(C2CCC(=O)NC2=O)C3=O)c1-c1ccc2cc[nH]c2c1` (stereo not drawn) [Example 525], for which, in experiment [1] (six hours), the “CK1α Ymin” value is reported as “C (C = 0-10% remaining)” and the DC50 was less than 25 nM. Also, in experiment [2] (six hours), the half-maximal degradation concentration (DC50) is less than 25 nM and the “GSPT1 Ymin” value is given as “C (C = 0-10% remaining)”.

Consider `Cn1ncc(-c2ccc3c(c2)CN(C2CCC(=O)NC2=O)C3=O)c1-c1ccsc1` (stereo not drawn) [Example 95], for which, in experiment [1] (six hours incubation), the “CK1α Ymin” value is “D (D = >10- 25% remaining)” and the DC50 is less than 25 nM. For the same compound, in experiment [2] (six hours incubation), the DC50 was not below 25 nM and the “GSPT1 Ymin” value was “F (F = >75-100% remaining)”.

Turning to `Cn1ncc(-c2ccc3c(c2)CN(C2CCC(=O)NC2=O)C3=O)c1-c1ccc(OC(F)F)cc1` (stereo not drawn) [Example 416, 3-(5-(5-(4-(difluoromethoxy)phenyl)-1-methyl-1H-pyrazol-4-yl)-1-oxoisoindolin-2-yl)piperidine-2,6-dione], in experiment [1] (six hours), the “CK1α Ymin” value is given as “E (E = >25-75% remaining)” and the half-maximal degradation concentration (DC50) is less than 25 nM. For the same compound, in experiment [2] (six hours), the DC50 was not below 25 nM and the “GSPT1 Ymin” value was “F (F = >75-100% remaining)”.

For `Cn1cnc(-c2ccc3c(c2)CN(C2CCC(=O)NC2=O)C3=O)c1-c1cc(F)ccc1Cl` (stereo not drawn) [Example 350], in experiment [1] (six hours incubation), the “CK1α Ymin” value is listed as “D (D = >10- 25% remaining)” and the DC50 was not below 25 nM. Moreover, in experiment [2] (six hours incubation), the DC50 is not below 25 nM and the “GSPT1 Ymin” value is “F (F = >75-100% remaining)”.

With `O=C1CCC(N2Cc3cc(-n4nccc4-c4ccccc4)ccc3C2=O)C(=O)N1` (stereo not drawn) [Example 33, 3-(1-Oxo-5-(5-phenyl-1H-pyrazol-1-yl)isoindolin-2-yl)piperidine-2,6-dione], in experiment [1] (six hours incubation), the “CK1α Ymin” value is recorded as “E (E = >25-75% remaining)” and the DC50 is less than 25 nM. In experiment [2] (six hours incubation), the DC50 was not below 25 nM and the “GSPT1 Ymin” value is reported as “E (E = >25-75% remaining)”.

Regarding `Cn1ncc(-c2ccc3c(c2)CN(C2CCC(=O)NC2=O)C3=O)c1-c1cccc(N2CCCC2)c1` (stereo not drawn) [Example 55], in experiment [1] (six hours incubation), the “CK1α Ymin” value is “E (E = >25-75% remaining)” and the DC50 is less than 25 nM. Also, in experiment [2] (six hours incubation), the DC50 was not below 25 nM and the “GSPT1 Ymin” value is reported as “F (F = >75-100% remaining)”.

With `Cn1cnc(-c2ccc3c(c2)CN(C2CCC(=O)NC2=O)C3=O)c1-c1cccc2c1OCC2` (stereo not drawn) [Example 349], in experiment [1] (six hours incubation), the “CK1α Ymin” value is listed as “C (C = 0-10% remaining)” and the DC50 was less than 25 nM. Moreover, in experiment [2] (six hours incubation), the DC50 was less than 25 nM and the “GSPT1 Ymin” value is “F (F = >75-100% remaining)”.

Regarding `Cn1cnc(-c2ccc3c(c2)CN(C2CCC(=O)NC2=O)C3=O)c1-c1cnn(Cc2ccccc2)c1` (stereo not drawn) [Example 406], in experiment [1] (six hours), the “CK1α Ymin” value was “D (D = >10- 25% remaining)” and the DC50 was not below 25 nM. Besides, in experiment [2] (six hours), the DC50 was less than 25 nM and the “GSPT1 Ymin” value is recorded as “E (E = >25-75% remaining)”.

`Cn1ncc(-c2ccc3c(c2)CN(C2CCC(=O)NC2=O)C3=O)c1-c1cc[nH]n1` (stereo not drawn) [Example 469]: in experiment [1] (six hours), the “CK1α Ymin” value is “D (D = >10- 25% remaining)” and the DC50 was not below 25 nM. For the same compound, in experiment [2] (six hours), the half-maximal degradation concentration (DC50) was not below 25 nM and the “GSPT1 Ymin” value is reported as “F (F = >75-100% remaining)”.

As for `Cc1ccc(-c2c(-c3ccc4c(c3)CN(C3CCC(=O)NC3=O)C4=O)cnn2C)cc1F` (stereo not drawn) [Example 151], in experiment [1] (six hours incubation), the “CK1α Ymin” value is “E (E = >25-75% remaining)” and the DC50 was less than 25 nM. In experiment [2] (six hours incubation), the DC50 is not below 25 nM and the “GSPT1 Ymin” value was “F (F = >75-100% remaining)”.

Consider `COc1ccc2cc(-c3c(-c4ccc5c(c4)CN(C4CCC(=O)NC4=O)C5=O)cnn3C)ccc2c1` (stereo not drawn) [Example 149], for which, in experiment [1] (six hours incubation), the “CK1α Ymin” value is listed as “D (D = >10- 25% remaining)” and the DC50 was less than 25 nM. Moreover, in experiment [2] (six hours incubation), the DC50 was less than 25 nM and the “GSPT1 Ymin” value is “F (F = >75-100% remaining)”.

For the compound `COc1cc(C#N)ccc1-c1c(-c2ccc3c(c2)CN(C2CCC(=O)NC2=O)C3=O)ncn1C` (stereo not drawn) [Example 263], in experiment [1] (six hours incubation), the “CK1α Ymin” value is reported as “E (E = >25-75% remaining)” and the DC50 was not below 25 nM. In addition, in experiment [2] (six hours incubation), the DC50 was less than 25 nM and the “GSPT1 Ymin” value is recorded as “F (F = >75-100% remaining)”.

Regarding `Cn1c(-c2ccc3c(c2)CN(C2CCC(=O)NC2=O)C3=O)cnc1-c1ccccc1` (stereo not drawn) [Example 28, 3-(5-(1-methyl-2-phenyl-1H-imidazol-5-yl)-1-oxoisoindolin-2-yl)piperidine-2,6-dione], in experiment [1] (six hours incubation), the “CK1α Ymin” value is “E (E = >25-75% remaining)” and the DC50 is not below 25 nM. In experiment [2] (six hours incubation), the DC50 is not below 25 nM and the “GSPT1 Ymin” value is on record as “F (F = >75-100% remaining)”.

`Cc1c(-c2c(-c3ccc4c(c3)CN(C3CCC(=O)NC3=O)C4=O)ncn2C)cnn1-c1ccccc1` (stereo not drawn) [Example 407]: in experiment [1] (six hours), the “CK1α Ymin” value is on record as “C (C = 0-10% remaining)” and the DC50 is less than 25 nM. Also, in experiment [2] (six hours), the DC50 is not below 25 nM and the “GSPT1 Ymin” value is reported as “E (E = >25-75% remaining)”.

Regarding `Cn1ncc(-c2ccc3c(c2)CN(C2CCC(=O)NC2=O)C3=O)c1-c1cnn(Cc2ccccc2)c1` (stereo not drawn) [Example 480], in experiment [1] (six hours), the “CK1α Ymin” value is on record as “E (E = >25-75% remaining)” and the DC50 was not below 25 nM. Besides, in experiment [2] (six hours), the DC50 is not below 25 nM and the “GSPT1 Ymin” value is recorded as “F (F = >75-100% remaining)”.

For the compound `Cn1cnc(-c2ccc3c(c2)CN(C2CCC(=O)NC2=O)C3=O)c1-c1ccncc1` (stereo not drawn) [Example 317], in experiment [1] (six hours incubation), the “CK1α Ymin” value was “D (D = >10- 25% remaining)” and the DC50 is less than 25 nM. Besides, in experiment [2] (six hours incubation), the DC50 is not below 25 nM and the “GSPT1 Ymin” value was “F (F = >75-100% remaining)”.

As to `Cn1ncc(-c2ccc3c(c2)CN(C2CCC(=O)NC2=O)C3=O)c1-c1ccc(C(=O)NCc2ccccc2)c(Cl)c1` (stereo not drawn) [Example 102], in experiment [1] (six hours incubation), the “CK1α Ymin” value is “E (E = >25-75% remaining)” and the DC50 was not below 25 nM. For the same compound, in experiment [2] (six hours incubation), the half-maximal degradation concentration (DC50) is not below 25 nM and the “GSPT1 Ymin” value was “F (F = >75-100% remaining)”.

With `CN1CC=C(c2c(-c3ccc4c(c3)CN(C3CCC(=O)NC3=O)C4=O)cnn2C)CC1` (stereo not drawn) [Example 591], in experiment [1] (six hours), the “CK1α Ymin” value is listed as “E (E = >25-75% remaining)” and the DC50 is not below 25 nM. Further, in experiment [2] (six hours), the DC50 is less than 25 nM and the “GSPT1 Ymin” value is listed as “F (F = >75-100% remaining)”.

Broadly, the DC50 is the concentration at which degradation of the target reaches its halfway point. Read a low DC50 as degradation at low concentration.

The record behind these values is US20240158370A1, “CK1 alpha AND DUAL CK1 alpha / GSPT1 DEGRADING COMPOUNDS” (Innovo Therapeutics, Inc., priority 2022, published 2024).
